# Laboratory results as given in patent publication US6620805B1, “Delivery of nucleic acids by porphyrins” (Yale University, priority 1996, dated 2003).
# Where two headings read alike, the source gives them in different places.
# Assays:
# HepG2 2.2.15 cells [1] = details: 5 μg oligo A, 4 h; for cellular delivery compared with TMP: 0-300 μg porphyrin
# Description: HepG2 2.2.15 cells were set up in 96 well plates as above. […] Complexes were added to the cultures and incubated at 37° C. for 4 h. The monolayers were washed three times with PBS and cells were lysed and counted as previously described.
# oligo A [2] = experiment: Carboxymethyl (CM) ion exchange column binding of labelled oligo to cationic porphyrin; details: for porphyrin required for complete binding (saturation) of 60 μg oligo: 60 μg oligo A, 150 mM NaCl, 30 min room temperature, column binding assay
# hepatoma cells = experiment: Timecourse of binding/uptake of TMP-delivered oligo to hepatoma cells; assay type: cell-based, human; details: 30 μg TMP and 10 μg oligo A
# Description: A timecourse experiment was carried out to determine the kinetics of binding/uptake of TMP-delivered oligonucleotides to hepatoma cells. […] A control timecourse was prepared without a delivery vehicle. Nucleic acids were recovered from one set of wells and were purified and analysed as described above.
# 9.5 kbp plasmid = details: 20 μg 9.5 kbp plasmid, 500 μg TMP
# HBV = experiment: Anti HBV activity in cell culture (extracellular HBV DNA by dot-blot); assay type: cell-based, Hepatitis B virus; details: TMP concentration corresponding to 100 nM EGS
# Description: (§1) The human hepatoma cell line HepG2 2.2.15 containing four copies of the HBV genome was used in this study. Cells were plated out (2×10^4/well) into 96 well plates and left for 5 days until confluent. […] The various dilutions were added to the cell monolayers (6 replicates per concentration). Daily treatments were carried out for 5 days changing the medium each day. After the fifth day cell culture supernatant was removed and assayed for extracellular HBV DNA levels by dot-blot using the method of Korba B. E. and Gerin J. L. (Use of a standardized cell culture assay to assess activities of nucleoside analogs against Hepatitis B virus replication. (1992) Antiviral Research 19, 55-70).
# HepG2 2.2.15 cells [3] = experiment: Fluorescence microscopy of delivered fluorescent oligo; assay type: cell-based, human; details: 100 μg fluorescent oligo, with 100 μg TMP or free, 1.5 h and 4 h
# Description: A 30 mer oligo containing a 5′ fluorescein isothiocyanate molecule was synthesised, oligo C. Sterile glass coverslips were placed into the wells of 6-well plates and HepG2 2.2.15 cells were seeded into the wells at 5×10^4 cells/well. […] After 1.5 h and 4 h the coverslips were removed from the wells, dipped five times in PBS to remove excess oligo and were fixed in 4% formaldehyde in PBS. The coverslips were mounted in Slowfade (Molecular Probes, Inc.), and viewed on a Nikon Diaphot fluorescence microscope.
# HepG2 2.2.15 cells [4] = experiment: Delivery of TMP-complexed oligo to hepatoma cells in culture (cell-associated radioactivity); assay type: cell-based, human
# Description: The complexed oligo was delivered to the cell cultures (6 replicates per variable), samples were removed for measurement of delivered radioactivity cpm and the cultures were returned to a 37° C. incubator for 4 h. Cultures were washed three times with 100 μl PBS and cells were lysed with SDS lysis buffer for extraction of nucleic acids (0.5% SDS, 10 mM Tris HCl pH 7.4, 10 mM EDTA, 10 mM NaCl, […] proteinase K). Lysates were counted to determine cell-associated radioactivity and nucleic acids were extracted from the lysate by phenol-chloroform treatment and ethanol precipitation.
# oligo A [5] = details: 2.4 μg TMP, 150 mM NaCl
# Text: The interaction of nucleic acids with water soluble porphyrins can easily be followed by measuring the absorbance spectrum of the porphyrin in the range 350-450 nm. Porphyrins have a characteristic Soret peak in this wavelength range. […] Spectra were taken over the range 300-500 nm and the wavelength of the Soret peak plotted against the mass of EGS.
# [6] = 100 or 200 μg TMP with 100 μg oligo
# Description: An internally-labelled Oligo A was prepared by kinasing a component oligo with ^33P ATP and ligating this shorter oligo to another short component cold oligo to form the full-length version. […] After 2 h and 24 h the mice were killed by cervical dislocation, weighed and their livers removed. Livers were weighed, homogenized and a small sample counted by liquid scintillation counting.
# HepG2 2.2.15 = details: TMP concentration; 700 nM TMP: 100 nM EGS; daily treatments for 5 days
# Description: as §1
# [7] = 200 μg oligo A with 100 μg TMP
# Description: After 8 h and 24 h mice were sacrificed and their livers quickly immersed in OCT medium (Tissue-Tek) and frozen in liquid N2. Thin sections were cut and sections were mounted on glass slides. Localisation of EGS in the liver section was determined by hybridisation of a ^33P-labelled antisense oligonucleotide complementary to the EGS sequence, and overlaying with a photographic emulsion. Background hybridisation was determined using a ^33P-labelled oligo with the same sequence as the EGS.
# HepG2 2.2.15 cells [8] = experiment: Influence of serum on TMP delivery of EGS; assay type: cell-based, human; details: 30 μg TMP with 5 μg oligo A; 0, 4% or 10% serum; 4 h and 24 h
# Description: Ninety-six well plates were set up as described above and allowed to grow until 80% confluence. Six replicate wells for each variable were washed twice with PBS. OPTI MEM (0 serum), 4% FCS in RPMI or 10% FCS in RPMI was added to the appropriate wells.
# Oligo A was radiolabelled as above. These complexes were added to the wells (in replicates of 6) and after 4 h and 24 h the monolayers were washed 3 times with PBS. Cells were lysed as above and radioactivity counted.
molecule,measurement,setting,value
"C[N+](C)(C)c1ccc(-c2c3nc(c(-c4ccc([N+](C)(C)C)cc4)c4ccc([nH]4)c(-c4ccc([N+](C)(C)C)cc4)c4nc(c(-c5ccc([N+](C)(C)C)cc5)c5ccc2[nH]5)C=C4)C=C3)cc1 [TMA, meso tetra(trimethyl anilinium)porphine]",cellular delivery compared with TMP,HepG2 2.2.15 cells [1],never as great as the TMP analogues
same,porphyrin amount giving maximal nucleic acid uptake,HepG2 2.2.15 cells [1],11 µg
same,porphyrin required for complete binding (saturation) of 60 μg oligo,oligo A [2],approximately 100 μg
Fe(III)-tetra-(N-methyl-4-pyridyl)-porphyrin chloride [Fe TMP],cellular delivery compared with TMP,HepG2 2.2.15 cells [1],does not affect cellular delivery by TMP up to a level of 30 μg
same,porphyrin amount giving maximal nucleic acid uptake,HepG2 2.2.15 cells [1],30 µg
same,influence of chelated Fe atom on nucleic acid binding,oligo A [2]; compared with TMP,behaved no differently than TMP alone
"C[n+]1ccc(-c2c3nc(c(-c4cc[n+](C)cc4)c4ccc([nH]4)c(-c4cc[n+](C)cc4)c4nc(c(-c5cc[n+](C)cc5)c5ccc2[nH]5)C=C4)C=C3)cc1.Cc1ccc(S(=O)(=O)[O-])cc1.Cc1ccc(S(=O)(=O)[O-])cc1.Cc1ccc(S(=O)(=O)[O-])cc1.Cc1ccc(S(=O)(=O)[O-])cc1 [TMP, Meso-tetra(N-methyl-4 pyridyl)porphine Tetra Tosylate]",oligo cell-associated,hepatoma cells; 8 h timepoint,greater than 75%
same,change in cell-associated material after 24 h,hepatoma cells; 24 h,reduction in the material cell-associated
same,plasmid bound to TMP,9.5 kbp plasmid,5 µg
same,antiviral activity of TMP,HBV,highly antiviral
same,hepatic EGS levels over time,100 μg EGS with 20 μg TMP per mouse (lower TMP dose),declined slightly over time
same,hepatic EGS levels over time,100 μg EGS with 100 μg TMP per mouse (higher TMP dose),gradually increased
same,EGS level in kidney over time,"100 μg EGS with 100 or 20 μg TMP per mouse, 2-72 h",rapid initial peak in the kidney which declined over 72 h
same,"EGS levels in spleen, fat and serum","100 μg EGS with TMP, mice",negligible
same,enhancement with the higher TMP level,"100 versus 20 μg TMP, same amount of EGS",two-fold
same,liver toxicity,"mice, 100 μg EGS with 100 or 20 μg TMP",No liver toxicity was detected
same,intracellular location of fluorescence,HepG2 2.2.15 cells [3],All nuclei of the cells in the TMP-delivered fluorescent oligo cultures appeared brightly fluorescent
same,oligo delivered,"HepG2 2.2.15 cells [4]; 1 μg delivered dose of oligo, 4 h",0.5 µg
same,oligo delivered,"HepG2 2.2.15 cells [4]; 5 μg delivered dose of oligo, 4 h",2.8 µg
same,oligo delivered,"HepG2 2.2.15 cells [4]; 10 μg delivered dose of oligo, 4 h",4.8 µg
same,TMP amount at saturation of binding or uptake,"HepG2 2.2.15 cells [4]; 1, 5 or 10 μg oligo A, 4 h",30 µg
same,maximum oligo cell associated,HepG2 2.2.15 cells [4]; 3×10^4 cells,4 to 5 µg
same,added dose cell-associated,"HepG2 2.2.15 cells [4]; all oligo doses, 4 h",Approximately 50%
same,mass of oligo at saturation (Soret peak reached 440 nm),oligo A [5],approximately 3 μg
same,persistence of delivered oligo in the liver,[6],persisted for 24 h
same,tolerability in mice,[6]; tail vein,well tolerated
same,concentration showing no toxicity,HepG2 2.2.15,less than 700 nM
same,porphyrin required for complete binding (saturation) of 60 μg oligo,oligo A [2],60 µg
same,stoichiometry of oligo:TMP at saturation,"oligo A [2]; 30 mer oligo, charge neutralisation",4 molecules of oligo interact with 29 molecules of TMP
same,hybridisation signal in liver after 24 h,[7]; 24 h,level of signal is reduced after 24 h
same,intrahepatic distribution of EGS,"[7]; tail vein, mice",substantial EGS present in all hepatocytes
same,material cell-associated,HepG2 2.2.15 cells [8],50-70%
